Consider ten compounds from patent US20210355107A1, “MULTI-SUBSTITUTED PYRIDONE DERIVATIVES AND MEDICAL USE THEREOF” (Beijing Yuezhikangtai Biomedicines Co., Ltd., priority 2018, published 2021).

The target of one experiment is T1, Ba/F3 Axl cells (Homo sapiens, UniProt P30530).
T1 sequence (P30530 1-894): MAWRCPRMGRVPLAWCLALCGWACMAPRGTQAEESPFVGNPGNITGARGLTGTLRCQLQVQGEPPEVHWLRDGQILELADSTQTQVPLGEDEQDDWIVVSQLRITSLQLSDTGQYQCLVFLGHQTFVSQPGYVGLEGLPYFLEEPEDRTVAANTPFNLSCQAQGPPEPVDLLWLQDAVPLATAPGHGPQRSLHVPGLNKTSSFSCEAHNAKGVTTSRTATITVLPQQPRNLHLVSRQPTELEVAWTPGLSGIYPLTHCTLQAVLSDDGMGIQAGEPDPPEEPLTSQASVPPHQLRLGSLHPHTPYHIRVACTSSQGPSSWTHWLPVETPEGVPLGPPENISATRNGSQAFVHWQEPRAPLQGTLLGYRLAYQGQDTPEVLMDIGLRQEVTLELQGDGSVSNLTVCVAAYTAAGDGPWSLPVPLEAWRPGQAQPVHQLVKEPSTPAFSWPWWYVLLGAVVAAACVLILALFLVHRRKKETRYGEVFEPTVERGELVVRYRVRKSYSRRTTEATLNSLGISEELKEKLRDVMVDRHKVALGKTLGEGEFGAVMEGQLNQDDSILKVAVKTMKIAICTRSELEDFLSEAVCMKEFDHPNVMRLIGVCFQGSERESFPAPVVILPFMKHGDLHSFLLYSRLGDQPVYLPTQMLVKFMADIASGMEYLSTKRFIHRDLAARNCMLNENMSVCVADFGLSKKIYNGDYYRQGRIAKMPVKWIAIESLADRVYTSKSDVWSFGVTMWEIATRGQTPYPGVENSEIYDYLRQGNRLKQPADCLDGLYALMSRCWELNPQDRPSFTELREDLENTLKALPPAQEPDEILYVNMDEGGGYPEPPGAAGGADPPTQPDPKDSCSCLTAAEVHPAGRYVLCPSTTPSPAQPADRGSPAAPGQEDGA
The experiment is described as follows: Ba/F3 Axl cell proliferation, CellTiter-Glo Luminescent Cell Viability Assay. The experiment is classed as cell-based. The note with it: 100 ng/mL rhGas6, 72 h incubation, read-out: IC50 (nM) against Ba/F3 Axl cells. How it is done:
Test method: the inhibitory activity of the compounds against Ba/F3 Axl cell proliferation was evaluated using CellTiter-Glo® Luminescent Cell Viability Assay Kit (Promega).
Test procedures: when thawing Ba/F3 Axl cells, the cell cryopreservation tube was shaken rapidly in a water bath at 37° C. to thaw the cells in 1 min. The cell suspension after thawing was mixed with RPMI1640 culture medium containing 10% FBS and centrifuged for 5 min at 1000 rpm, and the supernatant was discarded. The cell pellet was suspended in 5 mL of complete culture medium. […] Cell passage was performed at a cell density of 2×10^6 viable cells/mL. When the cells were passaged, the original cell suspension was directly made uniform by pipetting. 1/10 (namely 0.5 mL) of the cell suspension was kept, added with 4.5 mL of new complete culture medium and then made uniform by pipetting. The cell culture flask was then placed in a cell incubator for further culturing. Cell plating was performed when the cell confluence reached 2×10^6 viable cells/mL again. With reference to the method for cell passage, 1/10 (namely 0.5 mL) of the cell suspension was kept for further culturing when the cells were plated, and the remaining cell suspension was placed in a 15 mL centrifuge tube. The supernatant was discarded after centrifugation, and 5 mL of complete culture medium was used to resuspend the cells. […] A control group that contains no cell or compound but only complete culture medium and a control group that contains no compound but cells were set. The cell plates were incubated overnight in a cell incubator. […] The cell plates were then incubated in the cell incubator for 72 h. […] The cell plate was left to stand at room temperature for 20 min to stabilize luminescence signals, and the luminescence value of each well was scanned by a Spectramax M3 multi-functional microplate reader (Molecular Devices) at full wavelength.
Test samples: example compounds of the present invention and bemcentinib (positive control compound).
(§1) Data analysis: cell viability was calculated for compounds at various concentrations using the following formula:
(§2) Cell viability(%)=(Lumtest compound−Lumculture solution control)/(Lumcell control−Lumculture solution control)×100%,
(§3) where Lum refers to the luminescence value of each well of the test compound plate read by the multi-functional microplate reader.
(§4) The data were analyzed using GraphPad Prism 7.0 software, fitted with nonlinear S-curve regression to give dose-response curves, and IC50 values were calculated therefrom.
(In general: In ATP-based viability assays light output follows the ATP content of the culture.)

In the next experiment the test system is EBC-1 cells. The experiment is described as follows: EBC-1 cell proliferation, CellTiter-Glo Luminescent Cell Viability Assay. The experiment is classed as cell-based. Conditions: Homo sapiens, 72 h incubation, read-out: IC50 (nM) against EBC-1 cells. How it is done: Test Example 3: Inhibitory Activity of Compounds disclosed herein against EBC-1 Cells
Test method: the inhibitory activity of the compounds against EBC-1 cell proliferation was evaluated using CellTiter-Glo® Luminescent Cell Viability Assay Kit (Promega).
Test procedures: when thawing EBC-1 cells, the cell cryopreservation tube was shaken rapidly in a water bath at 37° C. to thaw the cells in 1 min. The cell suspension after thawing was mixed with RPMI1640 culture medium containing 10% FBS and centrifuged for 5 min at 1000 rpm, and the supernatant was discarded. The cell pellet was suspended in 5 mL of complete culture medium. The suspension was placed in a cell culture flask with a bottom area of 25 cm^2, and cultured in a cell incubator at 37° C./95% humidity/5% CO2. Cell passage was performed when cell confluence reached about 80%. When the cells were passaged, the original cell suspension was directly made uniform by pipetting. 1/6 of the cell suspension was kept, added with 5 mL of new complete culture medium and then made uniform by pipetting. The cell culture flask was then placed in a cell incubator for further culturing. Cell plating was performed when the cell confluence reached about 80% again. With reference to the method for cell passage, 1/6 cell suspension was kept for further culturing when the cells were plated, and the remaining 5/6 of cell suspension was placed in a 15 mL centrifuge tube. Cell viability was detected by trypan blue exclusion using an IC1000 cell counter (Countstar) to ensure that cell viability was above 90%. Cell suspension at a density of 3.33×10^4 viable cells/mL was prepared using complete culture medium, and 90 μL of the cell suspension was added into 96-well cell culture plates, so that the cell density in the cell culture plates (day 0 plate and test compound plate) was 3000 viable cells/well. A control group that contains no cell or compound but only complete culture medium and a control group that contains no compound but cells were set. The cell plates were incubated overnight in a cell incubator. […] 10 μL of the above solution was added into a corresponding cell culture plate to ensure that the initial concentration of the compound was 10 μM, the dilution factor of adjacent concentration was 3.16, and the DMSO content in the cell culture plate was 0.1%. The cell plates were then incubated in the cell incubator for 72 h. During detection, CellTiter-Glo reagent (namely CellTiter-Glo® […] cell viability test reagent, Promega, Cat. No. G7572, Lot. No. 0000310975) was melted, and the cell plate was equilibrated at room temperature for 30 min. The cell plate was added with the CellTiter-Glo reagent at 100 μL per well, and then shaken on a QB-9001 microporous quick shaker (Kylin-Bell) for 5 min to fully lyse the cells. The cell plate was left to stand at room temperature for 20 min to stabilize luminescence signals, and the luminescence value of each well was scanned by a Spectramax M3 multi-functional microplate reader (Molecular Devices) at full wavelength.
Test samples: example compounds of the present invention and cabozantinib (positive control compound).
as §1, §2, §3, §4

`[2H]C([2H])([2H])n1cc(-c2cnc(N)c(-c3cc(F)c(NC(=O)c4cn(C(C)C)c(C#N)c(-c5ccc(F)cc5)c4=O)cc3F)c2)cn1` [Example 34, N-(4-(2-amino-5-(1-methyl-d3-1H-pyrazol-4-yl)pyridin-3-yl)-2,5-difluorophenyl)-6-cyano-5-(4-fluorophenyl)-1-isopropyl-4-oxo-1,4-dihydropyridine-3-carboxamide]: on Ba/F3 Axl cells, the GI50 is 0.28 nM.

What is called IC50 is the concentration that inhibits the measured activity by half. Turning to `COc1cc2nccc(Oc3ccc(NC(=O)c4cn(C)c(C#N)c(-c5ccc(F)cc5)c4=O)cc3F)c2cc1OC` [Example 21, 6-cyano-N-(4-((6,7-dimethoxyquinolin-4-yl)oxy)-3-fluoro-phenyl)-5-(4-fluorophenyl)-1-methyl-4-oxo-1,4-dihydropyridine-3-carboxamide], in the experiment with EBC-1 cells, the half-inhibitory concentration (IC50) was determined as 109 nM. In addition, the GI50 at Ba/F3 Axl cells was 0.29 nM.

Regarding `CC(C)n1cc(C(=O)Nc2cc(F)c(-c3cc(-c4cnn(C)c4)cnc3N)cc2F)c(=O)c(-c2ccc(F)cc2)c1C#N` [Example 6, N-(4-(2-amino-5-(1-methyl-1H-pyrazol-4-yl)pyridin-3-yl)-2,5-difluorophenyl)-6-cyano-5-(4-fluorophenyl)-1-isopropyl-4-oxo-1,4-dihydropyridine-3-carboxamide], the IC50 in the experiment with EBC-1 cells came to 13 nM. In addition, the GI50 at Ba/F3 Axl cells worked out at 0.49 nM.

With `COc1cc2nccc(Oc3ccc(NC(=O)c4cn(C(C)C)c(C#N)c(-c5ccc(F)cc5)c4=O)cc3F)c2cc1OC` [Example 24, 6-cyano-N-(4-((6,7-dimethoxyquinolin-4-yl)oxy)-3-fluoro-phenyl)-5-(4-fluorophenyl)-1-isopropyl-4-oxo-1,4-dihydropyridine-3-carboxamide], in the experiment with EBC-1 cells, the concentration for half-maximal inhibition (IC50) is 45 nM. The GI50 at Ba/F3 Axl cells amounted to 0.36 nM.

Regarding `CCn1cc(-c2cnc(N)c(-c3ccc(NC(=O)c4cn(C5CC5)c(C#N)c(-c5ccc(F)cc5)c4=O)cc3F)c2)cn1` [Example 10, N-(4-(2-amino-5-(1-ethyl-1H-pyrazol-4-yl)pyridin-3-yl)-3-fluorophenyl)-6-cyano-5-(4-fluorophenyl)-1-cyclopropyl-4-oxo-1,4-dihydropyridine-3-carboxamide], in the experiment on EBC-1 cells, the IC50 is 208 nM.

Take `CC(C)n1cc(C(=O)Nc2ccc(-c3cc(-c4cnn(C5CCNCC5)c4)cnc3N)c(F)c2)c(=O)c(-c2ccc(F)cc2)c1C#N` [Example 2, N-(4-(2-amino-5-(1-(piperidin-4-yl)-1H-pyrazol-4-yl)pyridin-3-yl)-3-fluorophenyl)-6-cyano-5-(4-fluorophenyl)-1-isopropyl-4-oxo-1,4-dihydropyridine-3-carboxamide]: the concentration for half-maximal inhibition (IC50) in the experiment on EBC-1 cells came to 24 nM.

Consider `CCn1cc(-c2cnc(N)c(-c3ccc(NC(=O)c4cn(C(C)C)c(C#N)c(-c5ccc(F)cc5)c4=O)cc3F)c2)cn1` [Example 3, N-(4-(2-amino-5-(1-ethyl-1H-pyrazol-4-yl)pyridin-3-yl)-3-fluoro-phenyl)-6-cyano-5-(4-fluorophenyl)-1-isopropyl-4-oxo-1,4-dihydropyridine-3-carboxamide], for which the IC50 with EBC-1 cells came to 22 nM. In addition, the GI50 at Ba/F3 Axl cells stood at 0.29 nM.

In the case of `CC(C)n1cc(C(=O)Nc2ccc(-c3cc(-c4cnn(C)c4)cnc3N)c(F)c2)c(=O)c(-c2ccc(F)cc2)c1C#N` [Example 4, N-(4-(2-amino-5-(1-methyl-1H-pyrazol-4-yl)pyridin-3-yl)-3-fluorophenyl)-6-cyano-5-(4-fluorophenyl)-1-isopropyl-4-oxo-1,4-dihydropyridine-3-carboxamide], the 50% inhibitory concentration (IC50) in the experiment with EBC-1 cells was 30 nM. Besides, the GI50 at Ba/F3 Axl cells was found to be 0.57 nM.

Regarding `CCn1cc(-c2cnc(N)c(-c3cc(F)c(NC(=O)c4cn(C(C)C)c(C#N)c(-c5ccc(F)cc5)c4=O)cc3F)c2)cn1` [Example 33, N-(4-(2-amino-5-(1-ethyl-1H-pyrazol-4-yl)pyridin-3-yl)-2,5-difluorophenyl)-6-cyano-5-(4-fluorophenyl)-1-isopropyl-4-oxo-1,4-dihydropyridine-3-carboxamide], the GI50 on Ba/F3 Axl cells was found to be 0.23 nM.

With `CC(C)n1cc(C(=O)Nc2ccc(-c3cc(-c4cnn(C5CCN(C)CC5)c4)cnc3N)c(F)c2)c(=O)c(-c2ccc(F)cc2)c1C#N` [Example 7, N-(4-(2-amino-5-(1-(1-methylpiperidin-4-yl)-1H-pyrazol-4-yl)-pyridin-3-yl)-3-fluorophenyl)-6-cyano-5-(4-fluorophenyl)-1-isopropyl-4-oxo-1,4-dihydro-pyridine-3-carboxamide], in the experiment with EBC-1 cells, the IC50 stood at 27 nM.
